Experiments:
[1] = tested on: Band 5b tartrate-resistant acid phosphatase; assay: Effects of other materials on Band 5b TrACP activity in serum of healthy subjects; assay type: biochemical, human; conditions: for Band 5b TrACP activity (%): control activity taken as 100%, serum of healthy subjects; for Effect of addition on Band 5b tartrate-resistant acid phosphatase activity: summary in words of Table 1, 1-10 mmol/L
Experimental: (1) Formulation of Compositions
(a) A Composition Comprising Tartaric Acid and Heparin (Reaction Buffer Solution 1)
(b) A composition comprising tartaric acid, heparin and fluoride (reaction buffer solution 2)
(2) Measurement (an Example Using Conventional Automatic Analyzer, Cobas® Fara, Baxter Ltd.)
(§1) To a cuvette is added 150 µl of reaction buffer solution 1 or reaction buffer solution 2 and, after 20 seconds, 15 µl of sample (serum) is added. The mixture is incubated at 37° C. for 5 minutes and then 60 µl of the substrate solution is added to start the enzyme reaction (the reaction mixture is 15 times as much as the amount of the sample (=(150 μ1+15 μ1+60 μ1)/15 μ1). The change in absorbance at 340 nm is monitored at 20 seconds intervals for 5 minutes. The amount of change in absorbance per one minute (the amount of change in absorbance in the enzyme reaction per unit time) is obtained from a linear part of the change in absorbance. The amount of change in absorbance per one minute in blank is obtained by the same procedure as the above except for adding physical saline or purified water instead of the sample.
The activity of osteoclast-derived acid phosphatase located at Band 5b is obtained by subtracting the activity value obtained by using the composition comprising tartaric acid, heparin and fluoride of the reaction buffer solution 2 from the activity value obtained by using the composition comprising tartaric acid and the inhibitor to acid phosphatases located at Band 5 other than Band 5b (in Examples, heparin is used) of the reaction buffer solution 1. […] The concentration, formulation, amount and the like of the above composition are adjusted according to a particular kind of automatic analyzer and measurement (kind and concentration of the substrate and the like) used.
(§2) Activity (U/L)=[(amount of change in absorbance per unit time in enzyme reaction−amount of change in absorbance in blank)×liquid amount on enzyme reaction×10^6]÷[sample amount×molar absorbance coefficient×cell optical path length]

[2] = tested on: tartrate-resistant fluoride-sensitive acid phosphatases other than Band 5b; assay: TrFsACP activity of CM-Sepharose fractions of serum with heparin or polybrene in the reaction buffer; assay type: biochemical, human; conditions: CM-Sepharose fractions of children's serum; FIG. 1
Experimental: Using CM-Sepharose, Band 5a and Band 5b tartrate-resistant acid phosphatase were separated and collected.
(§3) The CM-Sepharose was packed into glass tubing (0.9 cm i.d.; length, 60 cm) and washed with acetate buffer (10 mmol/L, pH 5.0). The serum sample (children's serum, 5 ml) was adjusted to pH 5.0 by adding acetic acid and the coagulated proteins were removed by centrifugation at 20,000×g for 15 minutes. The supernatant fraction was passed through the column at 0.5 ml/minute. The enzyme, which was retained on the column, was then eluted with a liner gradient of sodium chloride: 0 to 1 mol/L in elution buffer (299 ml, acetate buffer, 10 mmol/L, pH 5.0). The fractionated serum was subjected to the method described in the above general method to measure tartrate-resistant fluoride-sensitive acid phosphatase activity (the value obtained by subtracting the value obtained with measurement solution 2 from the value obtained with measurement solution 1). Acid phosphatase activity was measured similarly by using measurement solution added polybrene which was antagonist of heparin instead of heparin.
When polybrene was added to the reaction buffer, at least four peaks of tartrate-resistant fluoride-sensitive acid phosphatase activity were observed (FIG. 1, I, II, III and IV). But only one peak (IV) was observed when heparin was added to the reaction buffer. […]

[3] = tested on: bone extract; assay: Effect of heparin on bone extract acid phosphatase activity; assay type: biochemical; conditions: FIG. 3; bovine tibia extract
Experimental: Bone extract was prepared according to the method described in Nakanishi, M., Yoh, K., Uchida, K., Maruo, S., Matuoka, A., Clin. Chem., 1998, 44, 221-225. Bovine tibia after removal of soft tissue was cut into small cubes. The marrow and blood were removed, pulverized and homogenized in a solution containing Triton x-100, potassium chloride, phenylmethylsulfonyl fluoride, benzamidine and aminocaproic acid. The extract was collected by centrifugation at 10,000×g for 20 minutes at 4° C. and stored at −80° C. until use.

[4] = tested on: serum; assay: Effect of heparin on serum acid phosphatase activity; assay type: biochemical, human; conditions: FIG. 3
Experimental: Blood samples collected from 516 healthy subjects aged 5 to 79 years (210 males and 306 females) were coagulated at room temperature for 2 to 4 hours and centrifuged at 1,000×g at room temperature for 10 minutes. Serum thus separated was transferred into 1.5 ml tubes and stored at −80° C. until use.

[5] = molecular target: T1, Band 5a tartrate-resistant acid phosphatase (Homo sapiens, UniProt P13686); assay: Effect of heparin on Band 5a tartrate-resistant acid phosphatase (CM-Sepharose peak III); assay type: biochemical
T1 construct: These fractions containing peak III and IV were used as Band 5a and Band 5b tartrate-resistant acid phosphatase, respectively; from tissue; host or cells: children's serum, CM-Sepharose cation-exchange fraction (peak III)
T1 sequence (P13686 22-325): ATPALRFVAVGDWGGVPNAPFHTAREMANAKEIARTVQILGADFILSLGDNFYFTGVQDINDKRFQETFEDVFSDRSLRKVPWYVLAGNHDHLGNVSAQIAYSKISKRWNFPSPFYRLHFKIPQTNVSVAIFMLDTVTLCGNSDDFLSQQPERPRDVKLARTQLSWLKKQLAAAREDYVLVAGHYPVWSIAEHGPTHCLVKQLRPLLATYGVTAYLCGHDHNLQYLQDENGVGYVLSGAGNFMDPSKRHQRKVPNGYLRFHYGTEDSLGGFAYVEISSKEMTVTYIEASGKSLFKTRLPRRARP
Experimental: as §3
These fractions containing peak III and IV were used as Band 5a and Band 5b tartrate-resistant acid phosphatase, respectively, in the following Examples. […]
Tartrate-resistant fluoride-sensitive acid phosphatase activity was measured using Band 5a and 5b tartrate-resistant acid phosphatases separated by CM-Sepharose to determine the effect of pH on activity. […]

[6] = tested on: Band 5b tartrate-resistant acid phosphatase; conditions: read-out: Km value for DCAPP of Band 5b tartrate-resistant acid phosphatase activity; substrate DCAPP
Experimental: as §1, with “sample. […]” for “sample.”
as §2

[7] = compound 1 mmol/L in reaction buffer solution
[8] = compound 5 mmol/L in reaction buffer solution
[9] = compound 10 mmol/L in reaction buffer solution

Molecule	Band 5b TrACP activity (%) [1, 7]	Band 5b TrACP activity (%) [1, 8]	Band 5b TrACP activity (%) [1, 9]	Effect of addition on Band 5b tartrate-resistant acid phosphatase activity [1]	Effect of heparin on tartrate-resistant fluoride-sensitive acid phosphatases other than Band 5b [2]	Effect of heparin on bone extract [3]	Effect of heparin on serum [4]	Effect of heparin on Band 5a tartrate-resistant acid phosphatase ([5]; FIG. 3)	Band 5a tartrate-resistant acid phosphatase activity after addition of heparin ([5]; pH 6.6, 0.05% heparin in reaction mixture, FIG. 4)	Km [6]
O=C(O)CN(CCN(CC(=O)O)CC(=O)O)CC(=O)O [EDTA]	95%	96%	93%	no effect						
O[C@H](CS)[C@H](O)CS (racemic) [Dithiothreitol]	93%	69%	57%	inhibited enzyme activity						
heparin					inhibits	slightly inhibited	slightly inhibited	significantly inhibited	zero level	
CC(=O)c1cc(Cl)c(OP(=O)(O)O)c(Cl)c1 [DCAPP, 2,6-dichloro-4-acetylphenyl phosphate]										4.7 mM
O=C1O[C@H]([C@@H](O)CO)C(O)=C1O [Ascorbic acid]	97%	103%	103%	no effect						
